Assay results: ChEMBL document CHEMBL5442175, “EUbOPEN Chemogenomics Library - PDSP Secondary Binding” (2024)

Tests used:
[1] = target: 5-hydroxytryptamine receptor 1D (Homo sapiens, UniProt P28221); assay: (§1) PDSP Secondary Binding target: HTR1D - Compounds are tested at 10 uM concentration, plate are incubated at room temperature in the dark for 90 minutes. Reaction are stopped by vacuum filtration onto 0.3% polyethyleneimine soaked filter mats using Filtermate harvester. Scintillation cocktail is then melted onto microwave-dried filters on a hot plate and the radio activity is counted in Microbia counter.
[2] = target: T1, 5-hydroxytryptamine receptor 3A (Homo sapiens, UniProt P46098); assay: as §1, with “HTR3A” for “HTR1D”
T1 sequence (P46098 whole entry): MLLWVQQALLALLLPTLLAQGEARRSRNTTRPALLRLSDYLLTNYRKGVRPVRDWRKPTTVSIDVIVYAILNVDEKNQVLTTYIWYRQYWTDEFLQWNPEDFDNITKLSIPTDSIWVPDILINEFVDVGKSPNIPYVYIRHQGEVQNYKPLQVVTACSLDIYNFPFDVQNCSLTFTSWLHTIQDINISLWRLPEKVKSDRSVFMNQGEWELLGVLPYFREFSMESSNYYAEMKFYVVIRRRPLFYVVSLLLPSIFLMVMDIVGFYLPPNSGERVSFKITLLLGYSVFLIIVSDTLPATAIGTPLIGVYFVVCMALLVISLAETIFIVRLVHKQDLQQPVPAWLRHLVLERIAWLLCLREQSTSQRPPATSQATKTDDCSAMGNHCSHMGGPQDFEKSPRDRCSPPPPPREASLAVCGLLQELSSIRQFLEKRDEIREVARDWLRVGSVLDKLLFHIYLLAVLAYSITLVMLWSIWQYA

[3] = target: 5-hydroxytryptamine receptor 2B (Homo sapiens, UniProt P41595); assay: as §1, with “HTR2B” for “HTR1D”
[4] = target: T2, Alpha-2C adrenergic receptor (Homo sapiens, UniProt P18825); assay: as §1, with “ADRA2C” for “HTR1D”
T2 sequence (P18825 whole entry): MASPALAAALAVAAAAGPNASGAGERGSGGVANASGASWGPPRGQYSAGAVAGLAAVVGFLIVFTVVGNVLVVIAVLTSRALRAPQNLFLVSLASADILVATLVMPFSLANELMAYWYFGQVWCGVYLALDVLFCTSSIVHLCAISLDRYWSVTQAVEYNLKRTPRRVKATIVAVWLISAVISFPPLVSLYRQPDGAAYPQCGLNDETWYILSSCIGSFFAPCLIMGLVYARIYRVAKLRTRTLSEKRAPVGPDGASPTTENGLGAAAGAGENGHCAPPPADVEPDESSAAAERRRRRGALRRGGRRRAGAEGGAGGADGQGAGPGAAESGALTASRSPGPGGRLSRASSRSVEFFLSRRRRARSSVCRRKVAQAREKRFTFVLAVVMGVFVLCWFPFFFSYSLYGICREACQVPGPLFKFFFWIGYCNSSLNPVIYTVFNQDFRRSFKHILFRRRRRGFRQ

[5] = target: Histamine H1 receptor (Homo sapiens, UniProt P35367); assay: as §1, with “HRH1” for “HTR1D”
[6] = target: 5-hydroxytryptamine receptor 2A (Homo sapiens, UniProt P28223); assay: as §1, with “HTR2A” for “HTR1D”
[7] = target: T3, Alpha-1A adrenergic receptor (Homo sapiens, UniProt P35348); assay: as §1, with “ADRA1A” for “HTR1D”
T3 sequence (P35348 whole entry): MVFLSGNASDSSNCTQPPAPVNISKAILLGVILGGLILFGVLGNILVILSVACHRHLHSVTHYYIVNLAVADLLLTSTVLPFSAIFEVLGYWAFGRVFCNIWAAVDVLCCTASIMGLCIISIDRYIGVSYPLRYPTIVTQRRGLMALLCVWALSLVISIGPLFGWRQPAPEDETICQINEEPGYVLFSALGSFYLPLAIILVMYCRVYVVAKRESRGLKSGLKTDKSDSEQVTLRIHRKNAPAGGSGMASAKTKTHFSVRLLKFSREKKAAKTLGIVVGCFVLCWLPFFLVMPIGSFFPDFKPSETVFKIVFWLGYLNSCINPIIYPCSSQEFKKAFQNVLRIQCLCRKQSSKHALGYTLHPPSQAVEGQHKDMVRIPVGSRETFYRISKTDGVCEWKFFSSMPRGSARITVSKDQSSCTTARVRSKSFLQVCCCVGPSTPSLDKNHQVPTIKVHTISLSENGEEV

[8] = target: T4, 5-hydroxytryptamine receptor 2C (Homo sapiens, UniProt P28335); assay: as §1, with “HTR2C” for “HTR1D”
T4 sequence (P28335 whole entry): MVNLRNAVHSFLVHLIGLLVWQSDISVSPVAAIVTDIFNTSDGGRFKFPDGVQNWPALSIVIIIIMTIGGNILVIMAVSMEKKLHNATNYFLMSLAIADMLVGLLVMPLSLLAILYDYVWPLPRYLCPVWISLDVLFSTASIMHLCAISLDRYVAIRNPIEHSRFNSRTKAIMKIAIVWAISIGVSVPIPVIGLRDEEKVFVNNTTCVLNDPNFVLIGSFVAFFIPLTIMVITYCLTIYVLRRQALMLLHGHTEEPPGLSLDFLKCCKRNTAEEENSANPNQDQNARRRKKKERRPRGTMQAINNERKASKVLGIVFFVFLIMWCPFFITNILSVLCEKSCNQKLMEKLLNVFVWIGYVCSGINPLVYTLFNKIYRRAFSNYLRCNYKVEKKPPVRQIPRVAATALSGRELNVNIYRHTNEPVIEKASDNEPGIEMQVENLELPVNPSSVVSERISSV

[9] = target: D(3) dopamine receptor (Homo sapiens, UniProt P35462); assay: as §1, with “DRD3” for “HTR1D”
[10] = target: Sigma non-opioid intracellular receptor 1 (Homo sapiens, UniProt Q99720); assay: as §1, with “SIGMAR1” for “HTR1D”
[11] = target: T5, Alpha-2A adrenergic receptor (Homo sapiens, UniProt P08913); assay: as §1, with “ADRA2A” for “HTR1D”
T5 sequence (P08913 whole entry): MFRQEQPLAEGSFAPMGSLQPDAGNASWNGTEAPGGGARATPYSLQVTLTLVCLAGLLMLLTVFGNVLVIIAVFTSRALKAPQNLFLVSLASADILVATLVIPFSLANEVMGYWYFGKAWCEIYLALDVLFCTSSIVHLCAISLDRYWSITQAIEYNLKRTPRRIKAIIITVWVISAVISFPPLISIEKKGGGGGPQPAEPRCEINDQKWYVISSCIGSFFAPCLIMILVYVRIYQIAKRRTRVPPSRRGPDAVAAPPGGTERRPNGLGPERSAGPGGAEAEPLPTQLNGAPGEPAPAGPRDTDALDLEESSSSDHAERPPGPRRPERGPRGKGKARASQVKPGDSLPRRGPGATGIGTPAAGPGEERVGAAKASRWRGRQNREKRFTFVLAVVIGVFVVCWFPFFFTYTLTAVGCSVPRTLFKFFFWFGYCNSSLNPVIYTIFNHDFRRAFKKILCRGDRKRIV

[12] = target: Sigma intracellular receptor 2 (Homo sapiens, UniProt Q5BJF2); assay: as §1, with “TMEM97” for “HTR1D”
[13] = target: T6, Alpha-2B adrenergic receptor (Homo sapiens, UniProt P18089); assay: as §1, with “ADRA2B” for “HTR1D”
T6 sequence (P18089 whole entry): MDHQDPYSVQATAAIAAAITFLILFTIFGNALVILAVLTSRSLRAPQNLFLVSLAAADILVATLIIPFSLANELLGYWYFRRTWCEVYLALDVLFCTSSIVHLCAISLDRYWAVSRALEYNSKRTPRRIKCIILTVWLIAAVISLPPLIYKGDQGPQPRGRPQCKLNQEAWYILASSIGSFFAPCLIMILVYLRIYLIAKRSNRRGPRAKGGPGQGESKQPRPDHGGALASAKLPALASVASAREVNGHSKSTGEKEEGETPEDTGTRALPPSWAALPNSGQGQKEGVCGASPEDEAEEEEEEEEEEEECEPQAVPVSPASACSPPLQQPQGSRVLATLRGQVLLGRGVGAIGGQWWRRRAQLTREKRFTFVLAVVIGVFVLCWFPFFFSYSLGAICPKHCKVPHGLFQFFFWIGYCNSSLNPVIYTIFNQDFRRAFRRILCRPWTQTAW

[14] = target: T7, 5-hydroxytryptamine receptor 1A (Homo sapiens, UniProt P08908); assay: as §1, with “HTR1A” for “HTR1D”
T7 sequence (P08908 whole entry): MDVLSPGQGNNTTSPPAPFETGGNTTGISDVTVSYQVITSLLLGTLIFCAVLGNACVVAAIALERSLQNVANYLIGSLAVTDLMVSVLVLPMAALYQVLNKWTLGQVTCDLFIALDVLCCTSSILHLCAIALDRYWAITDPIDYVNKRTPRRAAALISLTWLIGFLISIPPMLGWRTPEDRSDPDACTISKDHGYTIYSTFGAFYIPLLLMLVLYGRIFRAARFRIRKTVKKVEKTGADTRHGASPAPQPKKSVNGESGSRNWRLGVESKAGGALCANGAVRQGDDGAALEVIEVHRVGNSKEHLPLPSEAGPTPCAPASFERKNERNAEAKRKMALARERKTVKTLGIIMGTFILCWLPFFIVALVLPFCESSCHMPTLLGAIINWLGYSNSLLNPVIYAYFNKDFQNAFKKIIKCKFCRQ

[15] = target: T8, Muscarinic acetylcholine receptor M5 (Homo sapiens, UniProt P08912); assay: as §1, with “CHRM5” for “HTR1D”
T8 sequence (P08912 whole entry): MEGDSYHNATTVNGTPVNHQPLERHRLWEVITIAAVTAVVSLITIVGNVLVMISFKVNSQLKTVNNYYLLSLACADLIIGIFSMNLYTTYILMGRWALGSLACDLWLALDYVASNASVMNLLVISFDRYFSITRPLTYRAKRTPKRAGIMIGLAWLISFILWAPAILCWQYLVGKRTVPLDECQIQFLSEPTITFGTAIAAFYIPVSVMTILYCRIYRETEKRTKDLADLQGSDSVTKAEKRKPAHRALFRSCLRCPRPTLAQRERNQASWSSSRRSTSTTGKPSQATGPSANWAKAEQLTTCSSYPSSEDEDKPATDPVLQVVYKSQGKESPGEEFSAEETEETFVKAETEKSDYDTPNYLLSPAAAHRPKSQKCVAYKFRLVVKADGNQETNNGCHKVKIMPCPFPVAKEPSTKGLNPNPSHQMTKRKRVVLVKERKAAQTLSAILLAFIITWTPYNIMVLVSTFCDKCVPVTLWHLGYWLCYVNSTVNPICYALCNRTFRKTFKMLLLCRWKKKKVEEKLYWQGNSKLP

[16] = target: 5-hydroxytryptamine receptor 1B (Homo sapiens, UniProt P28222); assay: as §1, with “HTR1B” for “HTR1D”
[17] = target: 5-hydroxytryptamine receptor 5A (Homo sapiens, UniProt P47898); assay: as §1, with “HTR5A” for “HTR1D”
[18] = target: 5-hydroxytryptamine receptor 7 (Homo sapiens, UniProt P34969); assay: as §1, with “HTR7” for “HTR1D”
5-hydroxytryptamine receptor 7, sequence (P34969 whole entry): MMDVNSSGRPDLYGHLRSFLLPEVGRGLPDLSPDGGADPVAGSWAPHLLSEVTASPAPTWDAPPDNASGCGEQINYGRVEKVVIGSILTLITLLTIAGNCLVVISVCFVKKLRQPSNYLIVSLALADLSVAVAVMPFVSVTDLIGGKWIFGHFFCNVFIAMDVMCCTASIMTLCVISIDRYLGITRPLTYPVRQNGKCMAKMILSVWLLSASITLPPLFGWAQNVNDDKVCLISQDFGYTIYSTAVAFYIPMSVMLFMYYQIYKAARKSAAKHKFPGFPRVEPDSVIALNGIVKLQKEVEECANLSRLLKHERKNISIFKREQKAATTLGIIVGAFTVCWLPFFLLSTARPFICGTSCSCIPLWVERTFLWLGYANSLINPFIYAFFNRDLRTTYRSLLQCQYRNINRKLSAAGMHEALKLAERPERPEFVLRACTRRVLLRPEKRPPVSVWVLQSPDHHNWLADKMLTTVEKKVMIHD

5-hydroxytryptamine receptor 1D, sequence (P28221 whole entry): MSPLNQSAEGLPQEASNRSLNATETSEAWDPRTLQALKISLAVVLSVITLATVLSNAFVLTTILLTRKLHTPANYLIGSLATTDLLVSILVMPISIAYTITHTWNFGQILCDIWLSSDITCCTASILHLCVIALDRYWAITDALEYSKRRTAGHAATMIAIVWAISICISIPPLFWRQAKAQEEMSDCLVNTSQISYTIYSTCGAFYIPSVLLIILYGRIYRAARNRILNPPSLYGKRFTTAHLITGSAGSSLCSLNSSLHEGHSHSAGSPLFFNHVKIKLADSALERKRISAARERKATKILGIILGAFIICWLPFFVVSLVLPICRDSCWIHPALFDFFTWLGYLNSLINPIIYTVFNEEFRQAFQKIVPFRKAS
Sigma non-opioid intracellular receptor 1, sequence (Q99720 whole entry): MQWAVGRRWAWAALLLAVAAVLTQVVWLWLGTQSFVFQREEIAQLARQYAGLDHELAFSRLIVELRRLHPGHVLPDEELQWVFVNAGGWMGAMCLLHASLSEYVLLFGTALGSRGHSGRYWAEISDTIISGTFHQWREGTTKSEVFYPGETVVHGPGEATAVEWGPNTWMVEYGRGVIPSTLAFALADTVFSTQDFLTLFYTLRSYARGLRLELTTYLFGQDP
Sigma intracellular receptor 2, sequence (Q5BJF2 whole entry): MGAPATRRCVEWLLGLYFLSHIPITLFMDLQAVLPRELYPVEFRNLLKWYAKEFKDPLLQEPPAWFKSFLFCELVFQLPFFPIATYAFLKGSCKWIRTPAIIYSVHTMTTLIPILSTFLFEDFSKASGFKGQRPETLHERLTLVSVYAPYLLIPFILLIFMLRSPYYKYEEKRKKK
Histamine H1 receptor, sequence (P35367 whole entry): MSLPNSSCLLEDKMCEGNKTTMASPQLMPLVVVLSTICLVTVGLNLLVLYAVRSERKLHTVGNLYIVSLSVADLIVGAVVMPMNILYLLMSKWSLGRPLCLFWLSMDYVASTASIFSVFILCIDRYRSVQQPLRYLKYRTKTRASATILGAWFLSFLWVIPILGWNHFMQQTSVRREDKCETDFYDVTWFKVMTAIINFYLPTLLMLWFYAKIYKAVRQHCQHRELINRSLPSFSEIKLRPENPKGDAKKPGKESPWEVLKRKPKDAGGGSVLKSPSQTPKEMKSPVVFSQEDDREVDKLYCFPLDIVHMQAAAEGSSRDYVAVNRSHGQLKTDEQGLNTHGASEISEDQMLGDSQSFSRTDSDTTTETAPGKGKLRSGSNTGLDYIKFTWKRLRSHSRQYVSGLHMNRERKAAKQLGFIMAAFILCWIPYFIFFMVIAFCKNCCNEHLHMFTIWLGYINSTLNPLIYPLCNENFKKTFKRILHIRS
5-hydroxytryptamine receptor 2B, sequence (P41595 whole entry): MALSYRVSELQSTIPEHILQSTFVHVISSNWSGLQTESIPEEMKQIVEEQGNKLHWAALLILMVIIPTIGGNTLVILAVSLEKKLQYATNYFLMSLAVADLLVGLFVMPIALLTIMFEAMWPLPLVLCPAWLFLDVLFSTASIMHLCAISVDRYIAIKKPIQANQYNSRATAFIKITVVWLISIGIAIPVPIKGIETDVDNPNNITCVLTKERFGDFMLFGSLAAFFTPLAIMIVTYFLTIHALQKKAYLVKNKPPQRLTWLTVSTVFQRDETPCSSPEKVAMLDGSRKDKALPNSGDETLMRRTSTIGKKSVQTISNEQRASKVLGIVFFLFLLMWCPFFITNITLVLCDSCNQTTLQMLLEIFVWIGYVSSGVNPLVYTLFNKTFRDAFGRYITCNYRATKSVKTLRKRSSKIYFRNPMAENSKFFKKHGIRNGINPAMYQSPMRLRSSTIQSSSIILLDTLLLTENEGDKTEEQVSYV
5-hydroxytryptamine receptor 5A, sequence (P47898 whole entry): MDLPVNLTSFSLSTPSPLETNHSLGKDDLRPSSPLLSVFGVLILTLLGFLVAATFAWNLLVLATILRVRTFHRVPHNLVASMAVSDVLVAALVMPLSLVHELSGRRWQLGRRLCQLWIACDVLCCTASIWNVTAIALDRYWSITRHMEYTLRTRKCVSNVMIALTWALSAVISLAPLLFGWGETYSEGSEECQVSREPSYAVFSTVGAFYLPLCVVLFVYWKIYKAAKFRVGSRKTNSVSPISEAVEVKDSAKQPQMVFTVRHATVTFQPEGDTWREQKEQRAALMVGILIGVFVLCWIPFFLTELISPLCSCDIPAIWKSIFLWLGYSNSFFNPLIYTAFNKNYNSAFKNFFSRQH
5-hydroxytryptamine receptor 1B, sequence (P28222 whole entry): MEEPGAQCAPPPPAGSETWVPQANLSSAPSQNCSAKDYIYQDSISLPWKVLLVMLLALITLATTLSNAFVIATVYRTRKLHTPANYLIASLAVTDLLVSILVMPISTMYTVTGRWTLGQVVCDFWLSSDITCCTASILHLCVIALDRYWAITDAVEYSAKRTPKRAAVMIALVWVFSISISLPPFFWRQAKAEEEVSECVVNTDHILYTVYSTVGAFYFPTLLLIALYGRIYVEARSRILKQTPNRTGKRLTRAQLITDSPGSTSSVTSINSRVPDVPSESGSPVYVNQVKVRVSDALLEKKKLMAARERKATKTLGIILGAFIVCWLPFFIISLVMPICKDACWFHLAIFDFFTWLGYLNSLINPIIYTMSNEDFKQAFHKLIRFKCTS
D(3) dopamine receptor, sequence (P35462 whole entry): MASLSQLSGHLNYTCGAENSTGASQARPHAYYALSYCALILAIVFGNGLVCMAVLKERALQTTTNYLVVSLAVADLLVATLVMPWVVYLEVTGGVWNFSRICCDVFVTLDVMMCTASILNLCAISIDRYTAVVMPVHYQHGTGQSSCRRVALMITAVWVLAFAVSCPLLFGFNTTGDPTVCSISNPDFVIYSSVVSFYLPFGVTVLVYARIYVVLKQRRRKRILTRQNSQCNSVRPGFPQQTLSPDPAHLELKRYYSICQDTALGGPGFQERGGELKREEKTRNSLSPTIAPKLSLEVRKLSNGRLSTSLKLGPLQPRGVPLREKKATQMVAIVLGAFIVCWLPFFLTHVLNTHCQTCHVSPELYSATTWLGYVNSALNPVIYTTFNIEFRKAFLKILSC
5-hydroxytryptamine receptor 2A, sequence (P28223 whole entry): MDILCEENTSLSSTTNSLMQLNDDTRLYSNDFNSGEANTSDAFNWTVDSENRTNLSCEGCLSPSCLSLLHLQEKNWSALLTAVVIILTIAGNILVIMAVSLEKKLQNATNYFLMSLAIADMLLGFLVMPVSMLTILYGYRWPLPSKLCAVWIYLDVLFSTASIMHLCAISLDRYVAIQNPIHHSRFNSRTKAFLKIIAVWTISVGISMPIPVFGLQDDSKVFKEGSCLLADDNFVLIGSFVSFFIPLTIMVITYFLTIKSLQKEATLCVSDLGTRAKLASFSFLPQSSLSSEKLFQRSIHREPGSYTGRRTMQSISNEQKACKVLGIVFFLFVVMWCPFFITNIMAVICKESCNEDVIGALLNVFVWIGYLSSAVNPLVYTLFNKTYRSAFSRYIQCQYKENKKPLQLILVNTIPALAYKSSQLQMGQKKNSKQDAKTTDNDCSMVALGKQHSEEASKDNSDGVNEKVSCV

Row | Ki [3] [µM] | Ki [4] [µM] | Ki [5] [µM] | Ki [6] [µM] | Ki [7] [µM] | Ki [8] [µM] | Ki [9] [µM] | SMILES | Ki [1] [µM] | Ki [2] [µM] | Ki [10] [µM] | Ki [11] [µM] | Ki [12] [µM] | Ki [13] [µM] | Ki [14] [µM] | Ki [15] [µM] | Ki [16] [µM] | Ki [17] [µM] | Ki [18] [µM]
1 | 0.052 | 0.673 | 4.66 | 0.964 | 1.85 | 0.635 | 0.669 | CCCCN1CCC(COC(=O)c2cc(Cl)c(N)c3c2OCCO3)CC1 | 3.78 | 1.31 | 0.0317 | 1.53 | 0.0648 |  |  |  |  |  | 
2 |  |  |  |  |  |  |  | Cc1nn(C)c(C)c1-c1cccc2c1CC[C@H](N(C)C)C2 | 0.0055 | 0.261 | 0.158 | 0.647 | 1.12 | 0.108 | 2.42 | 0.308 | 0.0102 | 0.0752 | 0.0023
